The target of this assay is TRPC6 (Homo sapiens (Human), UniProt Q9Y210). Briefly: High throughput screening assay: fluorescent calcium (Fluo4/AM) assay of TRPC6 channel activation by GSK1702934A in HEK293/TREx cells. Type of assay: cell-based. Conditions: HEK293/TREx cells stably transfected with TRPC6; agonist GSK1702934A; 7 concentrations 20 μM to 0.027 μM, triplicate. The source says:
This screening assay measures TRPC6 (transient receptor potential cation channel, subfamily C, member 6) ion channel activation via addition either of the commercially available DAG ligand analogue OAG (1-oleoyl-2-acetyl-sn-glycerol) or of the TRPC6 agonist 1-[1-(4,5,6,7,8-pentahydrocyclohepta[2,1-d]thiophen-2-ylcarbonyl)-4-piperidyl]-3-hydrobenzimidazol-2-one (GSK1702934A). The assay utilizes a FLIPR fluorescent calcium sensor 4-(6-Acetoxymethoxy-2,7-difluoro-3-oxo-9-xanthenyl)-4′-methyl-2,2′-(ethylenedioxy)dianiline-N,N,N′,N′-tetraacetic acid tetrakis(acetoxymethyl) ester (Fluo4/AM) […]. Changes (increases) in intracellular membrane calcium concentration potential as measured by the fluorescent signal increase during membrane depolarization provide a measurement of channel activity.
The commercially available HEK293/TREx line (Invitrogen) was stably transfected with a TRPC6 construct and screened by conventional calcium imaging to find clones with TRPC6 expression following stimulation with 1 μg/ml tetracycline. These cells were maintained in the growth medium recommended by the manufacturer supplemented with 100 μg/ml hygromycin to promote retention of the TRPC6 construct. After growing to near confluency, cells were plated at a density of ^˜35,000 cells/well in 384 well CellBind plates (Corning) in the presence of 1 μg/ml tetracycline, and allowed to grow for 20-30 hrs. A nearly confluent monolayer resulted. Growth media was removed from the wells and cells were then loaded with […] Fluo4/AM diluted in Ringer's Solution (6.5 g NaCl, 0.42 g KCl, 0.25 g CaCl2) and 0.2 g of sodium bicarbonate; pH 7.4) supplemented with 1% Pluronic F-127 to a final concentration of 0.5 μM and incubated for 60 min, at room temperature. Dye solution was then removed from the cells by inverting plates with a sharp flick, and replaced with 25 μl Ringer's. Following ^˜0.5 hour for recovery from loading, cells were assayed using the Hamamatsu FDSS 6000 system, which permitted illumination at 485 nm. Frames were acquired at a rate of 0.2 Hz. During the assay, the plates were continuously vortexed, with pipette mixing of wells following addition of each reagent. For the screening assay, 26 μl of a diluted compound stock (at 50 μM) was added to each well for 2 minutes following the collection of a short (4 frame) baseline. 13 μl of agonist solution consisting of 125 nM GSK1702934A diluted in high-Ca2+Ringer solution (containing 90 mm Ca2+) was then added to each well, achieving a final concentration of 20 mm Ca2+ and 10 μM test compound. Data was collected for ^˜3 minutes following addition of high Ca2+Ringer. The fluorescent ratio for each well was divided by the initial fluorescent intensity for that well and the overall response was determined by averaging the fluorescent ratio of the last 4 frames acquired during the experiment excepting the final frame. Negative and Positive controls were included on each plate. Negative controls wells consisted of HEK293/TREx TRPC6 cells exposed to assay buffer and agonist solution, but no test compound. Positive control consisted of wells consisted of HEK293/TREx TRPC6 cells exposed to 25 μM 3-[(2-chlorophenoxy)methyl]phenyl piperidyl ketone (Chembridge) diluted in Ringer's solution and agonist solution. These controls defined zero percent and 100 percent block respectively, and intensity of each well was normalized to these values.
Compounds were tested in triplicate at all concentrations. Standard software was used to fit IC50 curves.
TRPC6, sequence (Q9Y210 whole entry, species assumed): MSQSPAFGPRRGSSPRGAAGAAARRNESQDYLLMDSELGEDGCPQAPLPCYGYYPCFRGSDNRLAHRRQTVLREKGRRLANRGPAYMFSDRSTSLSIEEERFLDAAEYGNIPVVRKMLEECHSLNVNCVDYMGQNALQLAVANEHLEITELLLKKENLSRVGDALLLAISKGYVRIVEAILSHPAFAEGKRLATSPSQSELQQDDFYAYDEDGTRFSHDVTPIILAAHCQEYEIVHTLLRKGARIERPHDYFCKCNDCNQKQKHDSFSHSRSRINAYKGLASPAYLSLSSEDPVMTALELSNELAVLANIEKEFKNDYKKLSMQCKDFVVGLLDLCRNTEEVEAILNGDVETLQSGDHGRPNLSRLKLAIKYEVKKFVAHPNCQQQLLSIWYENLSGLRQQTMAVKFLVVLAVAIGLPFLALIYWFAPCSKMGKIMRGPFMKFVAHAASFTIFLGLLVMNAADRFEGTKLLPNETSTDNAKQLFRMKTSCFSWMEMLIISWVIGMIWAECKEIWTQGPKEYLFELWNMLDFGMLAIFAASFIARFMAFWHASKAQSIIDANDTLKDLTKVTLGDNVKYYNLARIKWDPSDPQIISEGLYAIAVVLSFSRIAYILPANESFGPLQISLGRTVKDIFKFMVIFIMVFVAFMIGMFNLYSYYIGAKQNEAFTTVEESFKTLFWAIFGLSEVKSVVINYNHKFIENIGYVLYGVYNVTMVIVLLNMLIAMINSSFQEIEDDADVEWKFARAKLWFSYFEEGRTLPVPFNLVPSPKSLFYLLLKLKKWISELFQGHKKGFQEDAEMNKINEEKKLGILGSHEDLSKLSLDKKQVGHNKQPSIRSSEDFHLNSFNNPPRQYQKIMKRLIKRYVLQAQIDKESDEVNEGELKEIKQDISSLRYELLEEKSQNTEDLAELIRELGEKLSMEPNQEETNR
In the case of `COc1cc(C(=O)N2CCC(c3ccc(N)nn3)CC2)ncc1OCC(C)C` [Compound 36, [4-(6-Amino-pyridazin-3-yl)-piperidin-1-yl]-(5-isobutoxy-4-methoxy-pyridin-2-yl)-methanone], the IC50 is 97 nM.
As for `COc1cc(C(=O)N2CCC(c3ccc(N)nn3)CC2)ncc1OCC1CCC1` [Compound 25, [4-(6-Amino-pyridazin-3-yl)-piperidin-1-yl]-(5-cyclobutylmethoxy-4-methoxy-pyridin-2-yl)-methanone], the figure is 70 nM.
As for `CCCOc1cnc(C(=O)N2CCC(c3cnc(N)cc3OC)CC2)cc1OC` [Compound 46, (6-Amino-4-methoxy-3′,4′,5′,6′-tetrahydro-2′H-[3,4′]bipyridinyl-1′-yl)-(4-methoxy-5-propoxy-pyridin-2-yl)-methanone], the figure is 160 nM.
As for `COc1cc(C(=O)N2CCC(c3cnc(N)cc3OC)CC2)ncc1OCCc1ccccc1` [Compound 52, (6-Amino-4-methoxy-3′,4′,5′,6′-tetrahydro-2′H-[3,4′]bipyridinyl-1′-yl)-(4-methoxy-5-phenethyloxy-pyridin-2-yl)-methanone], the figure is 190 nM; as for `COc1cc(C(=O)N2CCN(c3cnc(N)cc3OC)C[C@H]2CO)ncc1Oc1ccc(F)cc1` [Compound 63, [(S)-4-(6-Amino-4-methoxy-pyridin-3-yl)-2-hydroxymethyl-piperazin-1-yl]-[5-(4-fluoro-phenoxy)-4-methoxy-pyridin-2-yl]-methanone], 670 nM.
As for `COc1cc(C(=O)N2CCC(c3cnc(N)cc3OC)CC2)ncc1OCC1(CF)CC1` [Compound 64, (6-Amino-4-methoxy-3′,4′,5′,6′-tetrahydro-2′H-[3,4′]bipyridinyl-1′-yl)-[5-(1-fluoromethyl-cyclopropylmethoxy)-4-methoxy-pyridin-2-yl]-methanone], the IC50 stood at 820 nM.
As to `COc1cc(C(=O)N2CCC(c3cnc(N)cc3OC)CC2)ncc1OC1CCCC1` [Compound 35, (6-Amino-4-methoxy-3′,4′,5′,6′-tetrahydro-2′H-[3,4′]bipyridinyl-1′-yl)-(5-cyclopentyloxy-4-methoxy-pyridin-2-yl)-methanone], the IC50 stood at 94 nM.
The same measure for `CCOc1cc(C(=O)N2CCC(c3ccc(N)nn3)CC2)ncc1Oc1ccc(F)cc1` [Compound 88, [4-(6-Amino-pyridazin-3-yl)-piperidin-1-yl]-[5-(4-fluoro-phenoxy)-4-ethoxy-pyridin-2-yl]-methanone]: 750 nM.
As for `COc1cc(C(=O)N2CCC(c3cnc(N)cc3OC)CC2)ncc1OCC(C)C(F)(F)F` (single isomer, unassigned) [Compound 94b, 4-Methoxy-5-(1-{4-methoxy-5-[3,3,3-trifluoro-2-methylpropoxy]pyridine-2-carbonyl}piperidin-4-yl)-pyridin-2-amine], the figure is 351 nM.
As for `COc1cc(C(=O)N2CCC(c3cc(OC)c(N)nn3)CC2)ncc1Oc1ccccc1` [Compound 21, [4-(6-Amino-5-methoxy-pyridazin-3-yl)-piperidin-1-yl]-(4-methoxy-5-phenoxy-pyridin-2-yl)-methanone], the figure is 43 nM; as for `COc1cc(C(=O)N2CCC(c3nnc(N)cc3C)CC2)ncc1Oc1ccc(F)cc1` [Compound 29, 6-{-[5-(4-Fluorophenoxy)-4-methoxypyridine-2-carbonyl]piperidin-4-yl}-5-methylpyridazin-3-amine trifluoroacetic acid], 110 nM.
Turning to `COc1cc(C(=O)N2C3CCC2CN(c2cnc(N)cc2OC)C3)ncc1Oc1ccc(F)cc1` [Compound 38, [3-(6-Amino-4-methoxy-pyridin-3-yl)-3,8-diaza-bicyclo[3.2.1]oct-8-yl]-[5-(4-fluoro-phenoxy)-4-methoxy-pyridin-2-yl]-methanone], the IC50 was found to be 170 nM.
The same measure for `CCCOc1cc(N)ncc1C1CCN(C(=O)c2cc(OC)c(Oc3ccccc3)cn2)CC1` [Compound 86, (6-Amino-4-propoxy-3′,4′,5′,6′-tetrahydro-2′H-[3,4′]bipyridinyl-1′-yl)-[5-(phenoxy)-4-methoxy-pyridin-2-yl]-methanone]: 350 nM.
Take `COc1cc(C(=O)N2CCN(c3cnc(N)cc3OC)CC23CC3)ncc1Oc1ccc(F)cc1` [Compound 9, [7-(6-Amino-4-methoxy-pyridin-3-yl)-4,7-diaza-spiro[2.5]oct-4-yl]-[5-(4-fluoro-phenoxy)-4-methoxy-pyridin-2-yl]-methanone]: the IC50 was 27 nM.
Turning to `COc1cc(C(=O)N2CCC(c3ccc(N)nn3)CC2)ncc1Oc1ccc(OC(F)F)cc1` [Compound 54, [4-(6-Amino-pyridazin-3-yl)-piperidin-1-yl]-[5-(4-difluoromethoxy-phenoxy)-4-methoxy-pyridin-2-yl]-methanone], the IC50 worked out at 220 nM.
The same measure for `COc1ccc(Oc2cnc(C(=O)N3CCC(c4cc(OC)c(N)nn4)CC3)cc2OC)cc1` [Compound 60, [4-(6-Amino-5-methoxy-pyridazin-3-yl)-piperidin-1-yl]-[4-methoxy-5-(4-methoxy-phenoxy)-pyridin-2-yl]-methanone]: 440 nM; for `COc1cc(C(=O)N2CCC(c3nnc(N)cc3OC)CC2)ncc1Oc1ccc(F)cc1` [Compound 49, [4-(6-Amino-4-methoxy-pyridazin-3-yl)-piperidin-1-yl]-[5-(4-fluoro-phenoxy)-4-methoxy-pyridin-2-yl]-methanone]: 250 nM; for `COc1ccc(Oc2cnc(C(=O)N3CCC(c4cnc(N)cc4OC)CC3)cc2OC)cc1` [Compound 28, (6-Amino-4-methoxy-3′,4′,5′,6′-tetrahydro-2′H-[3,4′]bipyridinyl-1′-yl)-[4-methoxy-5-(4-methoxy-phenoxy)-pyridin-2-yl]-methanone]: 100 nM.
Turning to `COc1cc(C(=O)N2CCC(c3cnc(N)cc3C)CC2)ncc1Oc1ccccc1` [Compound 10, (6-Amino-4-methyl-3′,4′,5′,6′-tetrahydro-2′H-[3,4′]bipyridinyl-1′-yl)-(4-methoxy-5-phenoxy-pyridin-2-yl)-methanone], the IC50 was 27 nM.
As for `COc1cc(C(=O)N2CCC(c3cnc(N)cc3OC)CC2)ncc1Oc1ccc(C(F)(F)F)cc1` [Compound 24, (6-Amino-4-methoxy-3′,4′,5′,6′-tetrahydro-2′H-[3,4′]bipyridinyl-1′-yl)-[4-methoxy-5-(4-trifluoromethyl-phenoxy)-pyridin-2-yl]-methanone], the figure is 67 nM.
As to `COc1cc(C(=O)N2CCN(c3cnc(N)cc3OC)C[C@H]2CO)ncc1Oc1ccccc1` [Compound 71, [(S)-4-(6-Amino-4-methoxy-pyridin-3-yl)-2-hydroxymethyl-piperazin-1-yl]-(4-methoxy-5-phenoxy-pyridin-2-yl)-methanone], the IC50 was 850 nM.
With `COc1cc(C(=O)N2CCC(c3ccc(N)nn3)CC2)ncc1OCC(C)(C)C` [Compound 74, [4-(6-Amino-pyridazin-3-yl)-piperidin-1-yl]-[5-(2,2-dimethyl-propoxy)-4-methoxy-pyridin-2-yl]-methanone], the IC50 is 1400 nM.
As to `COc1cc(C(=O)N2CCN(c3cnc(N)cc3OC)C[C@@H]2CO)ncc1Oc1ccc(F)cc1` [Compound 42, [(R)-4-(6-Amino-4-methoxy-pyridin-3-yl)-2-hydroxymethyl-piperazin-1-yl]-[5-(4-fluoro-phenoxy)-4-methoxy-pyridin-2-yl]-methanone], the IC50 is 140 nM.
The same measure for `COc1cc(C(=O)N2CCC(c3ccc(N)nn3)CC2)ncc1Oc1ccc(C(F)(F)F)cc1` [Compound 33, [4-(6-Amino-pyridazin-3-yl)-piperidin-1-yl]-[4-methoxy-5-(4-trifluoromethyl-phenoxy)-pyridin-2-yl]-methanone]: 82 nM.
The same measure for `COc1cc(C(=O)N2CCN(c3cnc(N)cc3OC)CC2)ncc1OCC1CC1` [Compound 61, [4-(6-Amino-4-methoxy-pyridin-3-yl)-piperazin-1-yl]-(5-cyclopropylmethoxy-4-methoxy-pyridin-2-yl)-methanone]: 500 nM.

For orientation: IC50 means the point on the concentration scale where inhibition reaches its midpoint.

For the origin of these results see patent US10800757B2, “Inhibitors of TRPC6” (Boehringer Ingelheim International GmbH, priority 2017, dated 2020).
